Assay results: patent US10316019B2, “Method for preparing the anhydrous crystalline form of isoniazid-derived hydrazone, thus produced crystalline polymorph of the anyhydrous form, use thereof for the treatment of alzheimer's disease, parkinsonism and other neurodegenerative disorders, and pharamceutical composition” (FACULDADDES CATÓLICAS, Associação sem fins Lucrativos, …, priority 2014, dated 2019)

Experiments:
[1] = tested on: α-synuclein and Cu(II)/Cu(I); assay: 1H NMR competition for Cu(II)/Cu(I) bound to α-synuclein; format: binding
[2] = tested on: β-amyloid peptide and Zn(II); assay: 2D 1H×15N HSQC NMR competition for Zn(II) bound to β-amyloid peptide; format: binding
Wistar male rats = assay: Acute toxicity test, intraperitoneal injection; format: in vivo; settings: i.p. up to 300 mg kg^−1, Wistar male rats

O=C(N/N=C/c1ccc2cccc(O)c2n1)c1ccncc1 [INHHQ, 8-hydroxyquinoline-2-carboxaldehyde isonicotinoyl hydrazone]
Direct interaction with α-synuclein ([1]; 1D and 2D NMR): does not interact directly | Effect on α-synuclein methionine 1H NMR signals in the presence of copper (Cu-α-synuclein interaction) ([1]; INHHQ 4 eq. added to α-synuclein + Cu(II)/Cu(I) 1 eq.): recovery of the original methionine signals' position | Direct interaction with β-amyloid peptide ([2]; 1D and 2D NMR): does not interact directly | Effect on Aβ HSQC signals in the presence of Zn(II) (Zn(II)-Aβ interaction) ([2]; INHHQ 4 eq. added to β-amyloid peptide + Zn(II) 1 eq.): partial intensity recovery for all Aβ signals | Behavioral changes (Wistar male rats; 72 h): no behavioral changes | Macroscopic organ abnormalities at dissection (Wistar male rats; after sacrifice): no macroscopic abnormalities
